Measurements reported in patent US11071731B2, “Allosteric modulators of the mu opioid receptor” (Chiromics, LLC, priority 2017, dated 2021).
pEC50: −log10 of the molar value.

Experiments:
mu opioid receptor (MOR) [1] = target: T1, mu opioid receptor (MOR) (Homo sapiens, UniProt P35372); test: Hit Hunter cAMP signaling assay (adenylyl cyclase inhibition), PAM mode with EC20 endomorphin-1; format: cell-based
mu opioid receptor (MOR) [2] = target: T1, mu opioid receptor (MOR); test: PathHunter β-arrestin recruitment assay, PAM mode with EC20 endomorphin-1; format: cell-based; settings: for pEC50: read-out: β-arr. EC50
Method: The effects of MOR PAMs and MOR SAMs on receptor activity were assayed using the PathHunter enzyme complementation assay technology (DiscoveRx, CA). A description of the technology employed is as follows.
Beta-Arrestin Pathway: The PathHunter β-arrestin assay monitors the activation of a GPCR in a homogenous, non-imaging assay format using a technology developed by DiscoveRx called Enzyme Fragment Complementation (EFC) with beta-galactosidase (β-Gal) as the functional reporter. […] EA is fused to β-Arrestin and ED is fused to the GPCR of interest. When the GPCR is activated and β-arrestin is recruited to the receptor, ED and EA complementation occurs, restoring β-gal activity, which is measured using chemiluminescent PathHunter Detection Reagents.
In this manner an EC50 for each test compound, and percent maximal response for each test compound, were determined for both the β-arrestin and cAMP pathways. Though the pharmacological effects of a given signal bias can be hypothesized (Raehal et al. (2011) Pharmacol. Rev. 63:1001-1019), it is not possible to know with certainty which bias ratio will be most advantageous in a clinical setting. […] Kenakin 2015a, supra. The information associated with the compounds detailed herein is the first large data set available for the prediction of ligand bias for an MOR PAM.

[3] = adenylyl cyclase inhibition, read-out: cAMP EC50
[4] = maximal response for adenylyl cyclase inhibition
[5] = maximal response for β-arrestin recruitment
[6] = cAMP EC50, adenylyl cyclase inhibition
[7] = maximal response, adenylyl cyclase inhibition
[8] = maximal response, β-arrestin recruitment

T1 sequence (P35372 whole entry): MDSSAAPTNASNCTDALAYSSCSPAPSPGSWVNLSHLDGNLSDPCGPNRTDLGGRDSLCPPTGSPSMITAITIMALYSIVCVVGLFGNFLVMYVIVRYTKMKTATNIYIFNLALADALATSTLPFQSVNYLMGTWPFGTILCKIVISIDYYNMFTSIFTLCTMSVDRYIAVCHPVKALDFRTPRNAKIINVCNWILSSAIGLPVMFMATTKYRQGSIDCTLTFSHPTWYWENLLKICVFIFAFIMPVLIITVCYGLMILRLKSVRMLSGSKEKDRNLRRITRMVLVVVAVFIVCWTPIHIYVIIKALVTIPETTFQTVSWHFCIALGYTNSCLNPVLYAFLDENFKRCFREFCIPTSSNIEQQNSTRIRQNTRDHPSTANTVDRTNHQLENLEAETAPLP

Structure (SMILES)	pEC50 (mu opioid receptor (MOR) [1]; [3])	cAMP Max. Resp. (mu opioid receptor (MOR) [1]; [4])	β-arr Max. Resp. (mu opioid receptor (MOR) [2]; [5])	pEC50 (mu opioid receptor (MOR) [2]; β-arrestin recruitment)	pEC50 (mu opioid receptor (MOR) [1]; [6])	cAMP Max. Resp. (mu opioid receptor (MOR) [1]; [7])	β-arr Max. Resp. (mu opioid receptor (MOR) [2]; [8])
COc1ccc(C2N(S(=O)(=O)c3ccc(Cl)cc3)CCC2(F)C(F)(F)F)cc1Br (mixture of isomers) [Compound 103]	5.68 to 6.15	D (D represents a maximal response of < 40%)	F (F represents a maximal response of > 60%)	< 5.68			
[2H]C1(c2ccc(F)c(Br)c2)C(F)CCCN1S(=O)(=O)Cc1ccc(Cl)cc1 (stereo not drawn) [Compound 33]		D (D represents a maximal response of < 40%)	F (F represents a maximal response of > 60%)				
Oc1nccc(N2CCCCC2c2cccc(C(F)(F)F)c2)n1 (stereo not drawn) [compound 401]		D (D represents a maximal response of < 40%)	D (D represents a maximal response of < 40%)	> 6.15	> 6.15		
FC(F)(F)c1cccc(C2CCCCN2Cc2cccc(Br)c2)n1 (stereo not drawn) [compound 173]		F (F represents a maximal response of > 60%)	F (F represents a maximal response of > 60%)	> 6.15	> 6.15		
O=S(=O)(c1cccc(Cl)c1)N1CCCC(F)C1c1ccc(F)c(Br)c1 (stereo not drawn) [Compound 32]	< 5.68			< 5.68			
N#Cc1cccc(N2CCCCC2c2ccc(F)c(Cl)c2)c1 (stereo not drawn) [compound 218]	< 5.68	D (D represents a maximal response of < 40%)	E (E represents a maximal response of 40-60%)	5.68 to 6.15			
COc1ccc(C2CC(C(F)(F)F)CN2S(=O)(=O)c2ccc(Cl)cc2)cc1Br (mixture of isomers) [Compound 86]	< 5.68	D (D represents a maximal response of < 40%)	D (D represents a maximal response of < 40%)	< 5.68			
Fc1cc(C2CCCCN2c2nc(Cl)ncc2F)cc(C(F)(F)F)c1 (stereo not drawn) [compound 122]		F (F represents a maximal response of > 60%)	F (F represents a maximal response of > 60%)	> 6.15	> 6.15		
Oc1ncc(F)c(N2CCCCC2c2cccc(C(F)(F)F)c2)n1 (stereo not drawn) [compound 349]		D (D represents a maximal response of < 40%)	D (D represents a maximal response of < 40%)	> 6.15	> 6.15		
Fc1cnc(Cl)nc1N1CC(F)CC1c1cccc(C(F)(F)F)n1 (stereo not drawn) [compound 481]	< 5.68			< 5.68		D (D represents a maximal response of < 40%)	D (D represents a maximal response of < 40%)
Oc1ncc(F)c(N2CCCCC2c2cccc(C(F)(F)F)c2)n1 (stereo not drawn) [compound 350]		D (D represents a maximal response of < 40%)	D (D represents a maximal response of < 40%)	> 6.15			
Fc1ccc(C2CCCCN2c2ccnc(Cl)n2)cc1Cl (stereo not drawn) [compound 470]				< 5.68	< 5.68	E (E represents a maximal response of 40-60%)	F (F represents a maximal response of > 60%)
COc1ccc(C2C3CCC(C3)N2c2nc(Cl)ncc2F)cc1Br (stereo not drawn) [compound 138]		D (D represents a maximal response of < 40%)	D (D represents a maximal response of < 40%)	< 5.68	< 5.68		
[2H]C1(c2cccc(C(F)(F)F)c2)C(F)CCCN1Cc1cccc(Cl)c1 (stereo not drawn) [compound 204]		F (F represents a maximal response of > 60%)	F (F represents a maximal response of > 60%)	5.68 to 6.15	5.68 to 6.15		
COc1ccc(C2CCCCN2c2ncc(C)c(Cl)n2)cc1Br (stereo not drawn) [compound 236]		F (F represents a maximal response of > 60%)	F (F represents a maximal response of > 60%)	< 5.68	< 5.68		
Fc1cnc(Cl)nc1N1CCCCC1c1ccn2nncc2c1 (stereo not drawn) [compound 374]		D (D represents a maximal response of < 40%)	D (D represents a maximal response of < 40%)	> 6.15	> 6.15		
O=S(=O)(c1ccc(Cl)cc1)N1CCCCC1c1ccc(OC(F)(F)F)c(Br)c1 (stereo not drawn) [compound 43]	< 5.68	D (D represents a maximal response of < 40%)	F (F represents a maximal response of > 60%)	5.68 to 6.15			
Fc1cnc(Cl)nc1N1CCCCC1c1cccc(OC(F)(F)F)n1 (stereo not drawn) [compound 131]		D (D represents a maximal response of < 40%)	F (F represents a maximal response of > 60%)	5.68 to 6.15	5.68 to 6.15		
COc1ccc(C2CC(C)CN2S(=O)(=O)c2ccc(Cl)cc2)cc1Br (single isomer, unassigned) [Compound 118]	< 5.68	D (D represents a maximal response of < 40%)	E (E represents a maximal response of 40-60%)	5.68 to 6.15			
Fc1cnc(Cl)nc1N1CCCCC1c1ccc(OC(F)(F)F)c(Br)c1 (stereo not drawn) [compound 126]		E (E represents a maximal response of 40-60%)	F (F represents a maximal response of > 60%)	> 6.15	> 6.15		
CC1CCN(S(=O)(=O)c2ccc(Cl)cc2)C1c1cccc(C(F)(F)F)c1 (mixture of isomers) [Compound 89]	< 5.68	D (D represents a maximal response of < 40%)	F (F represents a maximal response of > 60%)	5.68 to 6.15			
Fc1ccc(Cl)nc1N1CCCCC1c1cncnc1 (stereo not drawn) [compound 382]		D (D represents a maximal response of < 40%)	D (D represents a maximal response of < 40%)	> 6.15	> 6.15		
Fc1ccc(CN2CCCCC2c2cccc(C(F)(F)F)n2)cc1Cl (stereo not drawn) [compound 161]		E (E represents a maximal response of 40-60%)	F (F represents a maximal response of > 60%)	5.68 to 6.15	5.68 to 6.15		
Cc1nnc(C2CCCCN2c2nc(Cl)ncc2F)o1 (stereo not drawn) [compound 363]		D (D represents a maximal response of < 40%)	D (D represents a maximal response of < 40%)	> 6.15	> 6.15		
Fc1cnc(Cl)nc1N1CCCCC1c1ccc(Cl)c(Cl)c1 (stereo not drawn) [compound 331]		D (D represents a maximal response of < 40%)	D (D represents a maximal response of < 40%)	> 6.15	> 6.15		
Fc1ccc(Cl)nc1N1CCCCC1c1cccc(C(F)(F)F)c1 (stereo not drawn) [compound 263]		D (D represents a maximal response of < 40%)	F (F represents a maximal response of > 60%)	5.68 to 6.15	5.68 to 6.15		
Cc1ccc(C2CCCCN2c2nc(Cl)ncc2F)cc1Br (stereo not drawn) [compound 281]		D (D represents a maximal response of < 40%)	F (F represents a maximal response of > 60%)	5.68 to 6.15	> 6.15		
Cc1ncc(Cl)c(C2CCCCN2c2nc(Cl)ncc2F)n1 (stereo not drawn) [compound 392]		D (D represents a maximal response of < 40%)	D (D represents a maximal response of < 40%)	> 6.15	> 6.15		
Fc1cnc(Cl)cc1N1CCCCC1c1cccc(C(F)(F)F)c1 (stereo not drawn) [compound 261]		D (D represents a maximal response of < 40%)	F (F represents a maximal response of > 60%)	5.68 to 6.15	< 5.68		
